Test results: publication PMC3715890, “A Cyclic Peptide Inhibitor of HIF-1 Heterodimerization That Inhibits Hypoxia Signaling in Cancer Cells” (Journal of the American Chemical Society, 2013)

Tests used:
Format in all cases: cell-based, human
[1] = test system: HIF-1 (HIF-dependent luciferase reporter, U2OS-HRE-luc cells); assay: HIF-1-dependent luciferase reporter assay, U2OS-HRE-luc; settings: U2OS-HRE-luc
Experimental: The ability of P1–P3 to disrupt HIF-1 function in cells was assessed using a HIF-1-dependent luciferase reporter assay.[15],[21] The assay uses human osteosarcoma U2OS cells, stably transfected with a HIF-dependent luciferase reporter construct (U2OS-HRE-luc), where activation of HIF results in an increase in luciferase expression.[15]
Endogenous HIF-1 luciferase reporter assays were conducted as previously reported in U2OS-HRE-luc[15] and MCF-7 cells.[46] For plasmid-expressed HIF-α luciferase reporter assays, MCF-7 and U2OS cells were transiently transfected with plasmids expressing HIF-1α, HIF-2α, or a blank control (pcDNA3.1-HIF-1α, pcDNA3.1-HIF-2α, or pcDNA3.1), a renilla-encoding control (phRL-TK), and a HIF-dependent firefly luciferase reporter construct (pGL2-TK-HRE), using Transfast (Promega) according to the manufacturer’s instructions. After 24 h, cells were recovered and plated (4000 cells/well) in 96-well plates (Perkin-Elmer) and incubated for 5 h before either hypoxic or aerobic incubation in presence or absence of cyclic peptide inhibitors. Firefly and renilla activities were determined using Dual-Glo Reagent (Promega) according to the manufacturer’s instructions. The luciferase signal was normalized using the corresponding renilla values.
(§1) Cells were treated with the stated concentrations of inhibitor (P1, P2, or P3) and incubated in normoxia for 4 h, followed by incubation in a hypoxic environment. All manipulation of cell pellets (e.g., lysis, mRNA, and protein extraction) was conducted in a hypoxic environment.

[2] = test system: VEGF protein in hypoxic MCF-7 cells; assay: VEGF protein ELISA, MCF-7; settings: MCF-7, hypoxia, 100 μM
Experimental: (§2) Cells were treated with the stated concentrations of inhibitor (P1, P2, or P3) and incubated in normoxia for 4 h, followed by incubation in a hypoxic environment. All manipulation of cell pellets (e.g., lysis, mRNA, and protein extraction) was conducted in a hypoxic environment. […]
(§3) manufacturer’s instructions.
(§4) The loaded beads were washed and blocked with the provide buffers. […]
(§5) reagent (RPN2232, GE Healthcare).
(§6) Fluorescent binding assay
(§7) Scientific, catalogue no. […]
(§8) followed by washing with 3 × 200 µL ELISA buffer. 95 µL of EMSA buffer was added to […]
(§9) The fluorescence of each well at
(§10) Isothermal Titration Calorimetry […]
(§11) iTC200 system (GE Healthcare).
(§12) P2) was dissolved in the same buffer.
(§13) Control experiments for P1 or P2
(§14) Quantification of VGEF-A protein by ELISA […]
(§15) incubation in hypoxia for 16h. VEGF-A protein concentration was quantified by human

[3] = test system: VEGF protein in hypoxic U2OS cells; assay: VEGF protein ELISA, U2OS; settings: hypoxia, 100 μM
Experimental: as §2, §3, §4, §5, §6, §7, §8, §9, §10, §11, §12, §13, §14, §15

[4] = test system: VEGF mRNA in hypoxic U2OS cells; assay: VEGF mRNA qPCR, U2OS; settings: hypoxia 16 h, 100 μM
Experimental: as §1
Total RNA was extracted from MCF-7 and U2OS cells using RNeasy Mini Kit (74104, QIAGEN) and quantified using a Nanodrop ND-1000 spectrophotometer. Complementary DNA was synthesized in a 20 μL reaction containing 1 μg of total RNA, using qScript cDNA SuperMix (95048-100, Quanta Biosciences) according to the manufacturer’s instructions. Quantitative real-time PCRs were performed using Universal Taqman PCR master mix (Applied Biosystems) >and the Taqman gene expression assay of interest (Applied Biosystems) on an ABI StepOnePlus Real-Time PCR system (Applied Biosystems). Expression assays used in this study were HIF-1α (00936376_m1), VEGF-A (Hs00173626_m1), CAIX (Hs00154208_m1), LOX (Hs00942480_m1), HIF2α (Hs01026149_m1), CITED2 (Hs01897804_s1), and 18S (Hs99999901_m1). All expression values were normalized using expression of 18S.

Tat-cyclo-CRLMVL (head to tail) [P2, cyclo-CRLMVL tagged with Tat peptide via a disulfide bond; used as negative control]
effect on luciferase reporter in hypoxia ([1]; hypoxia (1% O2)): did not show an effect | effect on luciferase reporter in normoxia (basal) ([1]; normoxia): did not show an effect | VEGF protein level [2]: has no effect in either cell line | VEGF protein level [3]: has no effect in either cell line | VEGF mRNA [4]: had no effect
